As a reminder, the MIC50 is an inhibitory concentration at the 50% level, which refers to growth in some studies and to a panel of isolates in others. Low values mean higher susceptibility, high ones lower susceptibility. Usually MIC90 stands for an inhibitory concentration at the 90% level, which refers to growth in some studies and to a panel of isolates in others. A lower MIC90 goes with higher susceptibility.

This note sets out measurements from patent US20020115642A1, “Beta-lactam antibiotics” (priority 2000, published 2002).

In brackets after ≈: the same amount, converted by molar mass. Where two headings read alike, the source gives them in different places. Some results are limits rather than exact numbers.

One data set concerns E. coli N. Briefly: Susceptibility testing (MIC, modified NCCLS method). In kind it is cell-based, Escherichia coli. The conditions noted are these: Escherichia coli, E. coli, BLA neg. A digest of the protocol:
(§1)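 Readout OD600 increase. Compounds (aqueous or DMSO stocks) serially diluted 2-fold across 20 concentrations, then inoculated with bacterial broth culture to final ~1-1.5×10^6 cells/ml; screening-adapted NCCLS microdilution.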

Data set [1] concerns E. coli/TEM-1. The data set is described as above. The conditions noted are these: for MIC: Escherichia coli. The class given is cell-based, Escherichia coli. An outline of the steps:
as §1

A further data set concerns E. faecium. The data set is described as above. The class given is cell-based, Enterococcus faecium. Particulars: Enterococcus faecium; E. faecium (6); read-out: GM* MIC (geometric mean). As to the method:
The NCCLS (National Committee for Clinical Laboratory Standards) method to determine MIC's of antimicrobial compounds was modified for high-throughput screening. All stocks of tested compounds were prepared in either water or in dimethylsulfoxide (DMSO), depending on the solubility. […] Briefly 20 2-fold serial dilutions of testing compounds from the highest concentration were made in a 384-well microtiter plate. Each well was inoculated with testing bacteria in broth to a final concentration of approximately 1-1.5×10^6 cells/ml. Bacterial growth was determined by the increase of optical density at 600 nm using a microplate reader (Tecan SpectraFluor Plus).

Data set [2] concerns S. aureus clinical isolates. Put plainly: MIC by agar dilution, recent clinical isolates (UCSD Medical Center). The class given is cell-based, Staphylococcus aureus. Particulars: MSSA (14). As to the method:
Growth of all 14 isolates of MSSA was inhibited by Compound (9) at the lowest tested concentration (0.08 μg/ml) (See Table 6, below).
A general note: Agar dilution tests growth on a series of plates holding different concentrations.

Data set [3] is classed as physicochemical. The conditions noted are these: 5 h, pH 7.2. As to the method:
Assays were conducted at 37° C. in 100 mM potassium phosphate buffer pH 7.2 with 1 mM EDTA and 0.5 μg/ml TEM-1 β-lactamase. Compound (9) catalysis was determined via fixed time incubations followed by acid quenching. Product formation (triclosan) was determined by integrated peak area of A260 nm following HPLC separation. Hydrolysis product (triclosan) was separated from Compound (9) by use of an HP1100 series HPLC equipped with an Alltech Adsorbosphere HS(C18)5u 150 mm×4.6 mm column. The mobile phase was isocratic containing 55% acetonitrile and 0.1% TFA producing retention times of 20.4 minutes and 24.1 minutes for triclosan and Compound (9), respectively. Quantitation of triclosan was based on the A260 integrated peak area as compared to triclosan standards.
A typical TEM-1 β-lactamase assay is conducted at 37° C. in 1.4 ml of 100 mM potassium phosphate pH 7.2, 1 mM; ethylenediamine tetraacetic acid (EDTA) and 25 nM TEM-1 β-lactamase. A test compound is assayed at several concentrations, for example at 5 and 20 μM. At timed intervals oft=0, 15, 30, 60 and 120 minutes, 200 μl of the assay mixture is withdrawn and added to 8 μl of 10% trifluoracetic acid (TFA) in an high pressure liquid chromatography.(HPLC) microvial. Substrates and products are separated and quantitated via HPLC (described below). […]

For data set [4], the system named is E. coli/TEM-1. Put plainly: Detection of triclosan released from Compound (9) in bacteria. The class given is cell-based, Escherichia coli. Particulars: E. coli/TEM-1, after five minutes, 100 μM Compound (9). As for the experimental part: E coli N and β-lactamase expressing E. coli/TEM-1 were treated with Compound (9) under the condition described in Example 15. Aliquots of culture were sampled at 0, 5 and 15 minutes. The amount of Compound (9) and triclosan were analyzed by HPLC.
Overnight cultures of both wild-type Escherichia coli N and β-lactamase producing strain Escherichia coli/TEM-1 were diluted 100 times with fresh LB medium and cells were grown for 4 hours at 37° C. (shaking at 230 rpm). Cells were then diluted with fresh LB medium containing 100 μM Compound (9) until the OD600 reached 0.2. Aliquots of the culture were sampled at different timed intervals and the cells were pelleted by centrifugation at 10,000×g for 2 minutes at 4° C. The supernatant was removed and combined with 500 μl acetonitrile. The pelleted bacterial cells were resuspended in 100 μl 133 Phosphate Buffer (GIBCO-BRL, pH8.0) and subjected to 3 cycles of freeze-thawing, followed by addition of 500 μl acetonitrile. Both pellet extracts and supernatant were centrifuged at 10,000×g for 2 minutes at 4° C. 550 μl of the resultant supernatant was transferred into a new Eppendorf tube and vacuum-dried. Dried pellets were resuspended in 50 μl H2O and 100 μl acetonitrile, 75 μl of which was analyzed by HPLC.

The next data set deals with S. aureus (ATCC#700260). Put plainly: Bactericidal assay. The class given is cell-based. The conditions noted are these: 0.6 μg/ml. As for the experimental part: Compound (9) was added in log-phase S. aureus (ATCC#700260) and incubated at 37° C. The final concentration of cells at hour 0 was 1.3×10^6 cells/ml, and Compound (9) was 0.6 μg/mL. […]
Overnight broth cultures of S. aureus (ATCC#700260) were diluted 100 times into liquid medium and allowed to grow to exponential phase (OD600=0.6). Next the bacteria were diluted into fresh medium to give a working concentration of 10^6 cells/ml. Compound (9) was added to a final concentration of 0.6 μg/ml, and the suspension was incubated at 37° C. […] The samples were diluted at 10^−3×, 10^−4× or 10^−5× fold, and plated onto agar plates. The plates were incubated for 24 hours at 37° C. to obtain a viable cell count.

Data set [5] concerns UDP-glucuronosyltransferase. Briefly: Glucuronidation assay. The class given is in vitro ADME, human. As to the method: Assays were conducted as outlined in Example 15, using 100 μM Compound (9), triclosan or cephalothin incubated with 100 μg human liver microsome at 37° C. for 1 hour. The reactants were analyzed on TLC plate, and glucuronidated compounds were visualized by MolecularDynamics Storm 820.
Glucuronidation assay was performed based on modified procedure from Bansal and Gessner (1980) Anal. Biochem. 109:321-329. Reactions were performed in 50 mM Tris buffer, pH 7.6, containing 10 mM MgCl2, ImM UDPGA, 0.04 μCi of ^14C-UDPGA, 0.1 mM substrate, and 100 μg human liver microsome. The final volume was 100 μL. Reactions were incubated at 37° C. for one hour and the reactants extracted with 200 μL of 100% ethanol. The protein was removed by centrifugation at 12,000×g for 5 minutes in an Eppendorf centrifuige. The supernatant was dried and resuspended in 30 μL of 100% methanol and spotted on a Whatman glass-backed linear k TLC plate. Chromatography was performed in a mixture of 1-butanol/acetone/acetic acid/water (35:35:10:20). The TLC plate was then dried and exposed to phosphor imager overnight, then monitored by imaging (MolecularDynamics Storm 820).

In the case of `O=C(Cc1cccs1)N[C@@H]1C(=O)N2C(C(=O)O)=C(COc3cc(Cl)ccc3Oc3ccc(Cl)cc3Cl)CS[C@H]12` [Compound 9, 3-(2-(2,4-Dichlorophenoxy)-5-chlorophenoxy)methyl-7-(2-thienylacetamido)-3-cephem-4-carboxylic acid], the MIC with E. coli N (read-out: MIC, Comp. (9) plus 4 μg/mL CLA, plus 4 μg/mL lithium clavulanate) was 0.25 µg/mL; in the data set on E. coli N (drug alone, read-out: MIC) it was 0.25 µg/mL (≈ 0.399 µM); in the data set on E. coli N (plus 8 μg/mL sulbactam, read-out: MIC, Comp. (9) plus 8 μg/mL SBT), 0.13 µg/mL; in the data set on E. coli/TEM-1 [1], 0.002 µg/mL (≈ 0.0032 µM); in the data set with E. coli/TEM-1 [1] (read-out: MIC, Comp. (9) plus 8 μg/mL SBT), 0.016 µg/mL; in the data set with E. faecium, more than 7 µg/mL. The “fold more potent against E. coli/TEM-1 compared with E. coli N” value in the data set with E. coli/TEM-1 [1] (MIC ratio, Table 4) is reported as 128 fold. In addition, the MIC range in data set [2] was not above 0.08 µg/mL; in data set [2] (listed as Comp. (9)), 0.08-0.08 μg/ml. This compound returned an MIC50 in data set [2] (Staphylococcus aureus) of 0.08 µg/mL (≈ 0.128 µM). This compound also returned an MIC90 in data set [2] (Staphylococcus aureus) of 0.08 µg/mL (≈ 0.128 µM). Moreover, the “stability in TEM-1 blank experiment” value in data set [3] is recorded as “stable up to 5 hours”. Besides, the “Compound (9) hydrolyzed producing an equimolar amount of triclosan” value in the data set with E. coli/TEM-1 [4] was “approximately 80%”. For the same compound, in the data set on S. aureus (ATCC#700260) (6 hours incubation), the “decrease of the number of viable cells” value was 100 fold. Besides, the “decrease of the number of viable cells compared with time 0” value with S. aureus (ATCC#700260) (24 hour incubation) was 10,000 fold. Moreover, the “glucuronidation by human liver microsome” value in data set [5] is recorded as “not a substrate of UDP-glucuronosyltransferase”.
